Reference: ChEMBL document CHEMBL1201862, “PubChem BioAssay data set” (2004)
Values joined by “and” are separate entries in the source; they are usually repeats but may differ in a detail not shown here. Equal entries are not always repeated.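 The compound was tested at five concentrations on cells cultured in 96-well plates, with a 48-hour exposure period. At the GI50, growth is halved.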 Active and inactive are the calls of the source. Cut-off read from the data, not from the text of the source: active = GI50 up to about 1.1 µM and inactive = higher.

Legend:
Experiment in all cases: inhibition of tumour cell growth, NCI panel, 48 h
786-0 = test system: 786-0
A498 = test system: A498
A549 = test system: A549
ACHN = test system: ACHN
CAKI-1 = test system: CAKI-1
CCRF-CEM = test system: CCRF-CEM
COLO 205 = test system: COLO 205
DU-145 = test system: DU-145
EKVX = test system: EKVX
HCT-116 = test system: HCT-116
HCT-15 = test system: HCT-15
HL-60 = test system: HL-60
HOP-62 = test system: HOP-62
HOP-92 = test system: HOP-92
HT-29 = test system: HT-29
Hs-578T = test system: Hs-578T
IGROV-1 = test system: IGROV-1
K562 = test system: K562
KM12 = test system: KM12
LOX IMVI = test system: LOX IMVI
M14 = test system: M14
MCF7 = test system: MCF7
MDA-MB-231 = test system: MDA-MB-231
MDA-MB-435 = test system: MDA-MB-435
MDA-N = test system: MDA-N
MOLT-4 = test system: MOLT-4
Malme-3M = test system: Malme-3M
NCI-H226 = test system: NCI-H226
NCI-H23 = test system: NCI-H23
NCI-H460 = test system: NCI-H460
NCI-H522 = test system: NCI-H522
NCI/ADR-RES = test system: NCI/ADR-RES
OVCAR-3 = test system: OVCAR-3
OVCAR-4 = test system: OVCAR-4
OVCAR-5 = test system: OVCAR-5
OVCAR-8 = test system: OVCAR-8
PC-3 = test system: PC-3
RPMI-8226 = test system: RPMI-8226
RXF 393 = test system: RXF 393
SF-268 = test system: SF-268
SF-295 = test system: SF-295
SF-539 = test system: SF-539
SK-MEL-28 = test system: SK-MEL-28
SK-MEL-2 = test system: SK-MEL-2
SK-MEL-5 = test system: SK-MEL-5
SK-OV-3 = test system: SK-OV-3
SN12C = test system: SN12C
SNB-19 = test system: SNB-19
SNB-75 = test system: SNB-75
SR = test system: SR
SW-620 = test system: SW-620
TK-10 = test system: TK-10
U-251 = test system: U-251
UACC-257 = test system: UACC-257
UACC-62 = test system: UACC-62
UO-31 = test system: UO-31
HCC 2998 = test system: HCC 2998
BT-549 = test system: BT-549

CCN(CC)C(=O)CCCCCCCCC1CO1 (stereo not given)
GI50 (786-0): > 100 µM (inactive)
GI50 (A498): > 100 µM (inactive)
GI50 (A549): > 100 µM (inactive)
GI50 (ACHN): > 100 µM (inactive)
GI50 (CAKI-1): > 100 µM (inactive)
GI50 (CCRF-CEM): > 100 µM (inactive)
GI50 (COLO 205): > 100 µM (inactive)
GI50 (DU-145): > 100 µM (inactive)
GI50 (EKVX): > 100 µM (inactive)
GI50 (HCT-116): > 100 µM (inactive)
GI50 (HCT-15): > 100 µM
GI50 (HL-60): 21.1 µM (inactive)
GI50 (HOP-62): > 100 µM (inactive)
GI50 (HOP-92): > 100 µM (inactive)
GI50 (HT-29): > 100 µM (inactive)
GI50 (Hs-578T): > 100 µM (inactive)
GI50 (IGROV-1): > 100 µM (inactive)
GI50 (K562): > 100 µM (inactive)
GI50 (KM12): > 100 µM (inactive)
GI50 (LOX IMVI): 63.4 µM (inactive)
GI50 (M14): > 100 µM (inactive)
GI50 (MCF7): > 100 µM (inactive)
GI50 (MDA-MB-231): > 100 µM (inactive)
GI50 (MDA-MB-435): > 100 µM (inactive)
GI50 (MDA-N): > 100 µM (inactive)
GI50 (MOLT-4): > 100 µM (inactive)
GI50 (Malme-3M): 81.3 µM (inactive)
GI50 (NCI-H226): > 100 µM (inactive)
GI50 (NCI-H23): > 100 µM (inactive)
GI50 (NCI-H460): > 100 µM (inactive)
GI50 (NCI-H522): > 100 µM (inactive)
GI50 (NCI/ADR-RES): > 100 µM (inactive)
GI50 (OVCAR-3): > 100 µM (inactive)
GI50 (OVCAR-4): > 100 µM (inactive)
GI50 (OVCAR-5): > 100 µM (inactive)
GI50 (OVCAR-8): > 100 µM (inactive)
GI50 (PC-3): > 100 µM (inactive)
GI50 (RPMI-8226): > 100 µM (inactive)
GI50 (RXF 393): > 100 µM (inactive)
GI50 (SF-268): > 100 µM (inactive)
GI50 (SF-295): > 100 µM (inactive)
GI50 (SF-539): > 100 µM (inactive)
GI50 (SK-MEL-28): > 100 µM (inactive)
GI50 (SK-MEL-2): > 100 µM (inactive)
GI50 (SK-MEL-5): > 100 µM (inactive)
GI50 (SK-OV-3): > 100 µM (inactive)
GI50 (SN12C): > 100 µM (inactive)
GI50 (SNB-19): > 100 µM (inactive)
GI50 (SNB-75): > 100 µM (inactive)
GI50 (SR): > 100 µM (inactive)
GI50 (SW-620): > 100 µM (inactive)
GI50 (TK-10): > 100 µM (inactive)
GI50 (U-251): > 100 µM (inactive)
GI50 (UACC-257): > 100 µM (inactive)
GI50 (UACC-62): > 100 µM (inactive)
GI50 (UO-31): > 100 µM (inactive)

CC1OC(OC2C(OC(=O)[C@]34CCC(C)(C)C[C@H]3C3=CC[C@@H]5[C@@]6(C)CC[C@H](OC7OC(C(=O)O)C(O)C(OC8OCC(O)C(O)C8O)C7O)C(C)(C)[C@@H]6CC[C@@]5(C)[C@]3(C)CC4)OCC(O)C2O)C(O)C(OC2OCC(O)C(O)C2O)C1OC1OCC(O)C(OC2OCC(O)C(O)C2O)C1O (stereo not given in full)
GI50 (786-0): 12.1 µM (inactive) and 21.7 µM (inactive)
GI50 (A498): 2.66 µM (inactive) and 2.28 µM (inactive)
GI50 (ACHN): 7.28 µM (inactive) and 12.3 µM (inactive)
GI50 (CAKI-1): 5.93 µM (inactive) and 10.7 µM (inactive)
GI50 (CCRF-CEM): 14.6 µM (inactive) and 13.2 µM (inactive)
GI50 (DU-145): 15 µM (inactive) and 28.2 µM (inactive)
GI50 (EKVX): 17.4 µM (inactive) and 9.31 µM (inactive)
GI50 (HCC 2998): 2 µM (inactive) and 3.89 µM (inactive)
GI50 (HCT-15): 18.6 µM and 15.3 µM
GI50 (HOP-62): 14.9 µM (inactive) and 16.9 µM (inactive)
GI50 (Hs-578T): 26.6 µM (inactive) and 18.4 µM (inactive)
GI50 (LOX IMVI): 10.8 µM (inactive) and 13.4 µM (inactive)
GI50 (MCF7): 7.93 µM (inactive) and 5.35 µM (inactive)
GI50 (MDA-MB-231): 3.3 µM (inactive) and 3.16 µM (inactive)
GI50 (MOLT-4): 9.91 µM (inactive) and 17.9 µM (inactive)
GI50 (NCI-H23): 7.06 µM (inactive) and 13.9 µM (inactive)
GI50 (NCI/ADR-RES): 7.55 µM (inactive) and 14.4 µM (inactive)
GI50 (OVCAR-4): 7.96 µM (inactive) and 14.3 µM (inactive)
GI50 (OVCAR-8): 13.2 µM (inactive) and 17.5 µM (inactive)
GI50 (PC-3): 9.68 µM (inactive) and 11.1 µM (inactive)
GI50 (RXF 393): 15 µM (inactive) and 18.2 µM (inactive)
GI50 (SF-268): 16.7 µM (inactive) and 8.51 µM (inactive)
GI50 (SF-539): 20.5 µM (inactive)
GI50 (SK-MEL-5): 14.5 µM (inactive) and 18.4 µM (inactive)
GI50 (SNB-19): 9.86 µM (inactive) and 14.2 µM (inactive)
GI50 (SNB-75): 12.2 µM (inactive) and 14.1 µM (inactive)
GI50 (TK-10): 11.2 µM (inactive)
GI50 (UACC-62): 16.4 µM (inactive) and 28.8 µM (inactive)

COc1ccc(/C=C/c2sc3ccccc3[n+]2CCCCI)cc1OC
GI50 (786-0): > 10 µM (inactive)
GI50 (A498): > 10 µM (inactive)
GI50 (A549): > 10 µM (inactive)
GI50 (ACHN): > 10 µM (inactive)
GI50 (BT-549): > 10 µM (inactive)
GI50 (CAKI-1): > 10 µM (inactive)
GI50 (CCRF-CEM): 3.49 µM (inactive)
GI50 (DU-145): > 10 µM (inactive)
GI50 (EKVX): > 10 µM (inactive)
GI50 (HCC 2998): > 10 µM (inactive)
GI50 (HCT-116): 4.36 µM (inactive)
GI50 (HCT-15): > 10 µM
GI50 (HL-60): 4.46 µM (inactive)
GI50 (HOP-62): > 10 µM (inactive)
GI50 (HOP-92): 9.53 µM (inactive)
GI50 (HT-29): > 10 µM (inactive)
GI50 (Hs-578T): > 10 µM (inactive)
GI50 (IGROV-1): > 10 µM (inactive)
GI50 (K562): 3.25 µM (inactive)
GI50 (KM12): 6.25 µM (inactive)
GI50 (LOX IMVI): > 10 µM (inactive)
GI50 (M14): > 10 µM (inactive)
GI50 (MCF7): > 10 µM (inactive)
GI50 (MDA-MB-231): > 10 µM (inactive)
GI50 (MDA-MB-435): 4.57 µM (inactive)
GI50 (MDA-N): 5.97 µM (inactive)
GI50 (MOLT-4): 5.87 µM (inactive)
GI50 (Malme-3M): 3.01 µM (inactive)
GI50 (NCI-H226): > 10 µM (inactive)
GI50 (NCI-H23): > 10 µM (inactive)
GI50 (NCI-H460): > 10 µM (inactive)
GI50 (NCI-H522): 8.87 µM (inactive)
GI50 (NCI/ADR-RES): > 10 µM (inactive)
GI50 (OVCAR-3): 5.47 µM (inactive)
GI50 (OVCAR-4): > 10 µM (inactive)
GI50 (OVCAR-5): > 10 µM (inactive)
GI50 (OVCAR-8): 4.61 µM (inactive)
GI50 (PC-3): 3.33 µM (inactive)
GI50 (RPMI-8226): 7.33 µM (inactive)
GI50 (RXF 393): > 10 µM (inactive)
GI50 (SF-268): > 10 µM (inactive)
GI50 (SF-295): > 10 µM (inactive)
GI50 (SF-539): > 10 µM (inactive)
GI50 (SK-MEL-28): > 10 µM (inactive)
GI50 (SK-MEL-2): 3.61 µM (inactive)
GI50 (SK-MEL-5): 5.55 µM (inactive)
GI50 (SK-OV-3): > 10 µM (inactive)
GI50 (SN12C): > 10 µM (inactive)
GI50 (SNB-19): > 10 µM (inactive)
GI50 (SNB-75): 5.64 µM (inactive)
GI50 (SW-620): 7.01 µM (inactive)
GI50 (TK-10): > 10 µM (inactive)
GI50 (U-251): 6.67 µM (inactive)
GI50 (UACC-257): 5.33 µM (inactive)
GI50 (UACC-62): 6.32 µM (inactive)
GI50 (UO-31): > 10 µM (inactive)
